{"source": "patent US20220144850A1", "about": "“INDOLO HEPTAMYL OXIME ANALOGUE AS PARP INHIBITOR” (Chia Tai Tianqing Pharmaceutical Group Co., Ltd., priority 2019, published 2022)", "key": {"PARP1": {"target": "T1, PARP1 (Homo sapiens, UniProt P09874)", "T1 construct": "purchased TREVIGEN", "T1 sequence (P09874 whole entry)": "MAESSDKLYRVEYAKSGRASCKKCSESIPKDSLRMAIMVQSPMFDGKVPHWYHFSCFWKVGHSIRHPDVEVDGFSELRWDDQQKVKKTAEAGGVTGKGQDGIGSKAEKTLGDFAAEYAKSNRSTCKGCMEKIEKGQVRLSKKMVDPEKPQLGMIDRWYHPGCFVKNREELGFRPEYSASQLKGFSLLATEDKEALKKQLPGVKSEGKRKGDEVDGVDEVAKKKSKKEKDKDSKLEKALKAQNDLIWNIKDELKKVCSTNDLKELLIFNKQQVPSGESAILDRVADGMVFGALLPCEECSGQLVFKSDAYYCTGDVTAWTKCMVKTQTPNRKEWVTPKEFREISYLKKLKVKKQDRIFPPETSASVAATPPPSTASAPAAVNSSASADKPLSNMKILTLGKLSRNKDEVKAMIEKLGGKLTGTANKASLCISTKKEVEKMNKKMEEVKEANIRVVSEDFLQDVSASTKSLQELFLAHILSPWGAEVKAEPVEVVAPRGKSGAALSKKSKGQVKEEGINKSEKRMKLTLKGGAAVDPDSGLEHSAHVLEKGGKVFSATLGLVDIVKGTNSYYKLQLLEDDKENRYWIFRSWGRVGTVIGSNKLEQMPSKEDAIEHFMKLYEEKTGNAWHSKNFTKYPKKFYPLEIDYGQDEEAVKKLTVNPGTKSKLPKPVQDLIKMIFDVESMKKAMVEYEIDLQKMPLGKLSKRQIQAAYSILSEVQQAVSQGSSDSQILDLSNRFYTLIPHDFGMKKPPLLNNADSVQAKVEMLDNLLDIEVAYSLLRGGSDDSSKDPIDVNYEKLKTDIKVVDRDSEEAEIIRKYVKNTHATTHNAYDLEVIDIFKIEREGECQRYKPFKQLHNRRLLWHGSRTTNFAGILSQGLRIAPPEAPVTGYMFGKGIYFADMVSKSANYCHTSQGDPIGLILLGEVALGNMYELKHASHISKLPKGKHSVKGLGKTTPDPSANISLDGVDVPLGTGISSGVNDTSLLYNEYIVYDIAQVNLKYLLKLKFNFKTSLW", "assay": "PARP-1 enzymatic experiment (HT Universal Chemiluminescent PARP Assay kit)", "assay_type": "biochemical", "conditions": "chemiluminescence", "experimental": "Experimental Example 1: PARP-1 Enzymatic Experiment\nExperimental materials: test compounds; HT Universal Chemiluminescent PARP Assay kit (purchased from TREVIGEN); PBS (purchased from Wisent); Triton X-100 (purchased from Macklin); Envision multi-marker analyzer (PerkinElmer).\n(I) Preparation of Reagents:\n• 1. Washing solution: Triton X-100 was added to 1-fold PBS, and the final concentration of Triton X-100 was 0.1%. • 2. 1-fold PARP buffer: the 20-fold PARP buffer in the kit was subjected to 20-fold dilution with water to prepare a 1-fold PARP buffer. This buffer was used to prepare the compound, enzyme solution and substrate solution. • 3. 1-fold Strep-Diluent solution: the 10-fold Strep-diluent in the kit was subjected to 10-fold dilution with water to prepare a 1-fold Strep-diluent solution.\n(II) Preparation of Test Compounds:\nTest compounds were serially 5-fold diluted to the 8th concentration with a multichannel pipette, i.e. from 200 μM to 2.56 nM, with the DMSO concentration being 100%. 2 μL of each of the inhibitors at various concentration gradients was added to a compound intermediate plate, and 38 μL of the 1-fold PARP buffer was then added; the two were mixed well for use, and the DMSO concentration was 5%.\n(III) Experimental Method:\n• a) The 1-fold PARP buffer was added to a test plate at 50 μL per well and incubated at 25° C. for 30 min. • b) After the incubation was completed, the liquid in the test plate was discarded, and each of the compounds at various concentration gradients was pipetted from the compound intermediate plate and added into the test plate at 10 μL per well. A duplicate-well experiment was performed. • c) The test plate was added with the enzyme solution (0.5 IU) at 15 μL per well. The compound and enzyme were incubated together at 25° C. for 10 min. • d) After the incubation was completed, 25 μL of the 1-fold PARP Cocktail (comprising 2.5 μL of 10-fold PARP Cocktail, 2.5 μL of 10-fold Activated DNA and 20 μL of 1-fold PARP buffer) was added to each well of the test plate. The test plate was incubated at 25° C. for 1 h. The final concentration of the compound was 2 μM to 0.0256 nM, and the DMSO concentration was […]. • e) After the incubation was completed, the test plate was washed twice with 200 μL of washing solution per well and then washed twice with 200 μL of PBS per well. • f) Strep-HRP in the kit was subjected to 500-fold dilution with the 1-fold Strep-Diluent solution, added to the test plate at 50 μL per well, and then incubated at 25° C. for 1 h. • g) After the incubation was completed, the test plate was washed twice with 200 μL of washing solution per well and then washed twice with 200 μL of PBS per well.\nPeroxyGlow A and B in the kit were mixed at ratio of 1:1, and the mixed solution was added to the test plate at 100 μL per well. Chemiluminescence was immediately read using a PerkinElmer Envision multi-marker analyzer with an integration time of 0.5 s.\nData analysis: the original data was converted to inhibition using the equation (sample−Min)/(Max−Min)×[…], and the IC50 value was then curve filled using four parameters (obtained from the “log(inhibitor) vs. response-variable slope” model in GraphPad Prism)."}, "[1]": {"system": "BRCA1-mutated MDA-MB-436 cells", "assay": "Anti-proliferation experiment on MDA-MB-436 CTG cells", "assay_type": "cell-based, human", "conditions": "7 days incubation, CellTiter-Glo", "experimental": "Experimental Example 2: Anti-Proliferation Experiment on MDA-MB-436 CTG Cells\nExperimental materials: test compounds; RPMI-1640 medium; fetal bovine serum; penicillin/streptomycin antibiotic; MDA-MB-436 cell line; Envision multi-marker analyzer (PerkinElmer).\nMDA-MB-436 cells were seeded in a white 96-well plate by adding 80 μL of cell suspension (containing 3000 MDA-MB-436 cells) to each well. The cell plate was incubated in a CO2 incubator overnight.\n(§1) Test compounds were serially 5-fold diluted to the 8th concentration with a multichannel pipette, i.e. from 2 mM to 26 nM, and a duplicate well experiment was performed. 78 μL of medium was added to a intermediate plate, 2 μL of each of serially diluted compounds was transferred to corresponding wells of the intermediate plate, and after mixing, the mixture was transferred to the cell plate at 20 μL per well. The cell plate was incubated in a CO2 incubator for 7 days. Another cell plate was provided for reading signal values on the day of compound addition and these signal values were used as Max values in data analysis. Promega CellTiter-Glo was added to this cell plate at 25 μL per well and the luminescence signals were stabilized by incubation for 10 min at room temperature. Readings were taken using a PerkinElmer Envision multi-marker analyzer.\n(§2) Promega CellTiter-Glo was added to the cell plate at 25 μL per well and the luminescence signals were stabilized by incubation for 10 min at room temperature. Readings were taken using a PerkinElmer Envision multi-marker analyzer.\n2. Data analysis: the original data was converted to inhibition using the equation (sample−Min)/(Max−Min)×100%, and the IC50 value was then curve fitted using four parameters (obtained from the “log(inhibitor) vs. response-variable slope” model in GraphPad Prism). Table 2 provides the inhibitory activity of the compounds disclosed herein against MDA-MB-436 cell proliferation."}, "[2]": {"system": "BRCA-wild type MDA-MB-231 cells", "assay": "Anti-proliferation experiment on MDA-MB-231 CTG cells", "assay_type": "cell-based", "conditions": "Homo sapiens, MDA-MB-231, 72 h; 3 days incubation, CellTiter-Glo", "experimental": "Experimental Example 3: Anti-Proliferation Experiment on MDA-MB-231 CTG Cells\nExperimental materials: test compounds; R DMEM medium; fetal bovine serum; penicillin/streptomycin antibiotic; MDA-MB-231 cell line; Envision multi-label analyzer.\nMDA-MB-231 cells were seeded in a white 96-well plate by adding 80 μL of cell suspension (containing 5000 MDA-MB-231 cells) to each well. The cell plate was incubated in a CO2 incubator overnight.\nas §1, with “Eight concentration points were set for each compound, test compounds” for “Test compounds”, “serially 3-fold” for “serially 5-fold”, “to 920” for “to 26”, “for 3” for “for 7”\nas §2\nData analysis: the original data was converted to inhibition using the equation (sample−Min)/(Max−Min)×100%, and the IC50 value was then curve fitted using four parameters (obtained from the “log(inhibitor) vs. response-variable slope” model in GraphPad Prism). Table 1 provides the inhibitory activity of the compounds disclosed herein against MDA-MB-231 cell proliferation."}, "[3]": {"assay": "Single-dose pharmacokinetic study in mice", "assay_type": "in vivo", "conditions": "male C57BL/6 mice, IV: 1 mg/kg PO: 5 mg/kg", "text": "Experimental Example 8: Single-Dose Pharmacokinetic Study in Mice\nExperimental objective: to evaluate the pharmacokinetic behavior by using male C57BL/6 mice as test animals and determining the drug concentrations of the compounds in the plasma, liver and cerebrospinal fluid after single-dose administration.\nExperimental method: healthy adult male C57BL/6 mice were selected for intragastric administration. A candidate compound was mixed with an appropriate amount of 10% DMSO/90% (20% hydroxypropyl-β-cyclodextrin), vortexed and sonicated to prepare a 0.5 mg/mL clear solution for later use. After the mice were administered intravenously at 1 mg/kg and orally at 5 mg/kg, whole blood was collected at certain time points, and plasma was separated, and liver and cerebrospinal fluid were collected. After pretreatment of the samples, the drug concentration was measured by LC-MS/MS, and pharmacokinetic parameters were calculated using Phoenix WinNonlin software."}, "[4]": {"conditions": "Homo sapiens, MDA-MB-436, 168 h"}}}
{"smiles": "O=C1NOCc2c(-c3ccc(C4CCCN4)cc3F)[nH]c3cc(F)cc1c23", "note": "(single isomer, unassigned) [Example 22_A]", "values": [{"measurement": "IC50", "setting": "PARP1", "value": 4.9, "unit": "nM"}, {"measurement": "IC50", "setting": "[1]", "value": 125, "unit": "nM"}]}
{"smiles": "O=C1NOCc2c(-c3ccc(C4CCCN4)cc3F)[nH]c3cc(F)cc1c23", "note": "(single isomer, unassigned) [Example 22_B]", "values": [{"measurement": "IC50", "setting": "PARP1", "value": 4.2, "unit": "nM"}, {"measurement": "IC50", "setting": "[1]", "value": 61.6, "unit": "nM"}, {"measurement": "IC50", "setting": "[2]", "value": "> 10000", "unit": "nM"}]}
{"smiles": "O=C1NOCc2c(-c3ccc(C4CCCN4CCO)c(F)c3)[nH]c3cccc1c23", "note": "(centres unmarked) [Example 20_B]", "values": [{"measurement": "IC50", "setting": "PARP1", "value": 3.8, "unit": "nM"}, {"measurement": "IC50", "setting": "[1]; [4]", "value": 61.6, "unit": "nM"}]}
{"smiles": "O=C1NOCc2c(-c3ccc(C4=CNCC4)c(F)c3)[nH]c3cccc1c23", "note": "[Example 18]", "values": [{"measurement": "IC50", "setting": "[1]; [4]", "value": 134, "unit": "nM"}]}
{"smiles": "O=C1NOCc2c(-c3ccc(C4CCCN4)cc3)[nH]c3cc(F)cc1c23", "note": "(single isomer, unassigned) [Example 24_B]", "values": [{"measurement": "IC50", "setting": "PARP1", "value": 2.5, "unit": "nM"}, {"measurement": "IC50", "setting": "[1]", "value": 4.4, "unit": "nM"}]}
{"smiles": "O=C1NOCc2c(-c3ccc(C4(F)CCCNC4)c(F)c3)[nH]c3cccc1c23", "note": "(centres unmarked) [Example 19_B]", "values": [{"measurement": "IC50", "setting": "PARP1", "value": 3.5, "unit": "nM"}, {"measurement": "IC50", "setting": "[1]; [4]", "value": 24, "unit": "nM"}]}
{"smiles": "CC1(c2ccc(-c3[nH]c4cc(F)cc5c4c3CONC5=O)cc2F)CCCN1", "note": "(single isomer, unassigned) [Example 26_B]", "values": [{"measurement": "IC50", "setting": "PARP1", "value": 3.6, "unit": "nM"}, {"measurement": "IC50", "setting": "[1]", "value": 29.3, "unit": "nM"}]}
{"smiles": "O=C1NOCc2c(-c3ccc(C4CCCN4)c(F)c3)[nH]c3cc(F)cc1c23", "note": "(single isomer, unassigned) [Example 28_B]", "values": [{"measurement": "IC50", "setting": "PARP1", "value": 3.4, "unit": "nM"}, {"measurement": "IC50", "setting": "[1]", "value": 50, "unit": "nM"}]}
{"smiles": "[2H]C1(c2ccc(-c3[nH]c4cccc5c4c3CONC5=O)cc2F)CCCN1", "note": "(centres unmarked) [Example 15_B]", "values": [{"measurement": "IC50", "setting": "PARP1", "value": 7.1, "unit": "nM"}, {"measurement": "IC50", "setting": "[1]; [4]", "value": 89.6, "unit": "nM"}]}
{"smiles": "O=C1NOCc2c(-c3ccc(C4CCCN4)nc3)[nH]c3cccc1c23", "note": "(centres unmarked) [Example 16_B]", "values": [{"measurement": "IC50", "setting": "PARP1", "value": 2.8, "unit": "nM"}, {"measurement": "IC50", "setting": "[1]; [4]", "value": 44.6, "unit": "nM"}]}
{"smiles": "[2H]C1([2H])ONC(=O)c2cccc3[nH]c(-c4ccc(C5CCCN5)c(F)c4)c1c23", "note": "(centres unmarked) [Example 21_B]", "values": [{"measurement": "IC50", "setting": "PARP1", "value": 5.6, "unit": "nM"}, {"measurement": "IC50", "setting": "[1]; [4]", "value": 69.8, "unit": "nM"}]}
{"smiles": "O=C1NOCc2c(-c3ccc(C4CCCNC4)cc3F)[nH]c3cc(F)cc1c23", "note": "(racemic) [Example 10]", "values": [{"measurement": "IC50", "setting": "[1]; [4]", "value": 27, "unit": "nM"}]}
{"smiles": "[2H]C1([2H])ONC(=O)c2cccc3[nH]c(-c4ccc(C5(C)CCCN5)c(F)c4)c1c23", "note": "(centres unmarked) [Example 23_A]", "values": [{"measurement": "IC50", "setting": "PARP1", "value": 3.7, "unit": "nM"}, {"measurement": "IC50", "setting": "[1]; [4]", "value": 30.9, "unit": "nM"}]}
{"smiles": "O=C1NOCc2c(-c3ccc(C4CCCN4)c(F)c3)[nH]c3cc(F)cc1c23", "note": "(single isomer, unassigned) [Example 28_A]", "values": [{"measurement": "IC50", "setting": "PARP1", "value": 2.9, "unit": "nM"}, {"measurement": "IC50", "setting": "[1]; [4]", "value": 73, "unit": "nM"}]}
{"smiles": "CC1(c2ccc(-c3[nH]c4cc(F)cc5c4c3CONC5=O)cc2)CCCN1", "note": "(centres unmarked) [Example 25_B]", "values": [{"measurement": "IC50", "setting": "PARP1", "value": 2.8, "unit": "nM"}, {"measurement": "IC50", "setting": "[1]", "value": 20.7, "unit": "nM"}]}
{"smiles": "[2H]C1(c2ccc(-c3[nH]c4cccc5c4c3CONC5=O)cc2)CCCN1", "note": "(centres unmarked) [Example 8_A]", "values": [{"measurement": "IC50", "setting": "PARP1", "value": 2.7, "unit": "nM"}, {"measurement": "IC50", "setting": "[1]; [4]", "value": 20.8, "unit": "nM"}]}
{"smiles": "CNCc1ccc(-c2[nH]c3cc(F)cc4c3c2CCNC4=O)cc1", "note": "[Rucaparib, reference compound]", "values": [{"measurement": "Maximum concentration", "setting": "[3]", "value": 24.8, "unit": "nM"}, {"measurement": "bioavailability", "setting": "[3]; mouse, plasma", "value": 14.6, "unit": "%"}, {"measurement": "clearance", "setting": "[3]; mouse, plasma", "value": 99.9, "unit": "mL/min/kg"}, {"measurement": "Vd", "setting": "[3]; mouse, plasma, read-out: Apparent volume of distribution", "value": 13.1, "unit": "L/kg"}]}
